Test results published in BindingDB's records for doi:10.1128/AAC.00386-06 (University of Connecticut At Storrs, 2006).

Each molecule was assayed against T1, Dihydrofolate reductase (Bacillus cereus (strain ATCC 14579 / DSM 31 / CCUG 7414 / JCM 2152 / NBRC 15305 / NCIMB 9373 / NCTC 2599 / NRRL B-3711), UniProt Q81E04) (assay: In Vitro Inhibition Assay). Settings: pH 7; 25 °C.
T1 sequence (Q81E04 whole entry): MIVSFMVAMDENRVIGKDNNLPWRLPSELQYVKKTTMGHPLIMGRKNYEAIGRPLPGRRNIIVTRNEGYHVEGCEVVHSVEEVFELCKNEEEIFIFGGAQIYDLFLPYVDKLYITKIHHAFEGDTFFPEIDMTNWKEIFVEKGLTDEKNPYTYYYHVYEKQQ
Method: Enzyme activity assays were performed by monitoring the rate of enzyme-dependent NADPH consumption at an absorbance of 340 nm over a period of several minutes. After an incubation period of 5 min in the presence or absence of the inhibitor, the reaction was initiated with the addition of dihydrofolate. The reactions were performed a minimum of four times to determine the average rate and 50% inhibitory concentration values.

SMILES	IC50
COc1ccc(OCCCCC(=O)O)cc1Cc1cnc2nc(N)nc(N)c2c1C [2,4-diamino-5-deazapteridine, 5]	1.67 µM
Nc1nc(N)c2nc(CN3c4ccccc4C=Cc4ccccc43)cnc2n1 [6-{2-azatricyclo[9.4.0.0^{3,8}]pentadeca-1(11),3(8),4,6,9,12,14-heptaen-2-ylmethyl}pteridine-2,4-diamine]	16.7 µM
Cc1nc2nc(N)nc(N)c2nc1CN(C)c1ccc2c(Cl)cc(Cl)cc2c1 [6-{[(5,7-dichloronaphthalen-2-yl)(methyl)amino]methyl}-7-methylpteridine-2,4-diamine]	> 1000 µM
COc1ccc(OCCCCCC(=O)O)cc1Cc1cnc2nc(N)nc(N)c2c1C [2,4-diamino-5-deazapteridine, 6]	0.51 µM
CCOC(=O)CCCCOc1ccc(OC)c(Cc2cnc3nc(N)nc(N)c3c2C)c1 [ethyl 5-[3-({2,4-diamino-5-methylpyrido[2,3-d]pyrimidin-6-yl}methyl)-4-methoxyphenoxy]pentanoate]	0.35 µM
COc1ccc(OCCCC(=O)O)cc1Cc1cnc2nc(N)nc(N)c2c1C [4-[3-({2,4-diamino-5-methylpyrido[2,3-d]pyrimidin-6-yl}methyl)-4-methoxyphenoxy]butanoic acid]	0.6 µM
COc1ccc(CCCCCC(=O)O)cc1Cc1cnc(N)nc1N	150 µM
COc1ccc(C#CCCCC(=O)O)cc1Cc1cnc2nc(N)nc(N)c2c1C [6-[3-({2,4-diamino-5-methylpyrido[2,3-d]pyrimidin-6-yl}methyl)-4-methoxyphenyl]hex-5-ynoic acid]	1.9 µM
CN(Cc1cnc2nc(N)nc(N)c2n1)c1ccc2c(Cl)cc(Cl)cc2c1 [6-{[(5,7-dichloronaphthalen-2-yl)(methyl)amino]methyl}pteridine-2,4-diamine]	17.6 µM
CCOC(=O)CCCCCOc1ccc(OC)c(Cc2cnc3nc(N)nc(N)c3c2C)c1 [ethyl 6-[3-({2,4-diamino-5-methylpyrido[2,3-d]pyrimidin-6-yl}methyl)-4-methoxyphenoxy]hexanoate]	1.85 µM
COc1cc(CCc2c[nH]c3nc(N)nc(N)c23)cc(OC)c1OC [5-[2-(3,4,5-trimethoxyphenyl)ethyl]-7H-pyrrolo[2,3-d]pyrimidine-2,4-diamine]	252 µM
COc1ccc(I)cc1Cc1cnc(N)nc1N [5-[(5-iodo-2-methoxyphenyl)methyl]pyrimidine-2,4-diamine]	37.3 µM
COc1ccc(C#CCCCCC(=O)O)cc1Cc1cnc(N)nc1N	69.3 µM
Nc1nc(N)c2nc(CNc3ccc4c(Cl)cc(Cl)cc4c3)cnc2n1 [6-{[(5,7-dichloronaphthalen-2-yl)amino]methyl}pteridine-2,4-diamine]	7.58 µM
Nc1nc(N)c2nc(CNc3ccc4cc(Cl)ccc4c3)cnc2n1 [6-{[(6-chloronaphthalen-2-yl)amino]methyl}pteridine-2,4-diamine]	6.32 µM
Nc1nc(N)c2c(ccc3c4ccccc4ccc32)n1 [4,6-diazatetracyclo[8.8.0.0^{2,7}.0^{11,16}]octadeca-1(10),2,4,6,8,11(16),12,14,17-nonaene-3,5-diamine]	> 1000 µM
Nc1nc(N)c2nc(CNc3ccc4cc(Cl)c(Cl)cc4c3)cnc2n1 [6-{[(6,7-dichloronaphthalen-2-yl)amino]methyl}pteridine-2,4-diamine]	4.82 µM
CCOC(=O)CCCOc1ccc(OC)c(Cc2cnc3nc(N)nc(N)c3c2C)c1 [2,4-diamino-5-deazapteridine, 7]	0.88 µM
CN(Cc1cnc2nc(N)nc(N)c2n1)c1ccc2cc(Cl)ccc2c1 [6-{[(6-chloronaphthalen-2-yl)(methyl)amino]methyl}pteridine-2,4-diamine]	2.26 µM
COc1cc(NCc2ccc3nc(N)nc(N)c3c2)c(Br)c(OC)c1OC [6-{[(2-bromo-3,4,5-trimethoxyphenyl)amino]methyl}quinazoline-2,4-diamine]	1.1 µM
COc1ccc(C#CCCCCC(=O)O)cc1Cc1cnc2nc(N)nc(N)c2c1C [2,4-diamino-5-deazapteridine, 2]	0.27 µM
